According to patent publication US8648111B2, “N1-2-thiophene-2-ylethyl-N2-substituted biguanide derivate, preparation method thereof, and pharmaceutical composition containing the same as active ingredients” (Hanall Biopharma Co., Ltd., priority 2008, dated 2014):

Columns and labels:
Format in all cases: cell-based
[1] = test system: C2C12 cells; assay: Measurement of glucose absorption ability (3H-deoxy-glucose uptake with insulin); conditions: 100 uM compound with 1 μM insulin, 24 hours, differentiated C2C12; higher value = stronger; more than 200% counts as glucose absorption ability
[2] = test system: HepG2 cells; assay: Measurement of gluconeogenesis inhibitory ability (14C-lactate, glucose formed in cells); conditions: 100 uM compound, 24 hours, HepG2, lower value = stronger gluconeogenesis inhibition
[3] = test system: HepG2 cells; assay: Measurement of cholesterol synthesis inhibitory ability (cholesterol content in cell lysates, Amplex red); conditions: 24 hours, HepG2, lower value = stronger cholesterol synthesis inhibition; for Cholesterol (100 uM) Aver.: 100 uM compound; for Cholesterol (500 uM) Aver.: 500 uM compound
[4] = test system: HepG2 cells; assay: Measurement of triglyceride (triglyceride content in cell lysates, Amplex red); conditions: 24 hours, HepG2, lower value = stronger triglyceride synthesis inhibition; for Triglyceride (100 uM) Aver.: 100 uM compound; for Triglyceride (500 uM) Aver.: 500 uM compound

| Structure (SMILES) | Glucose absorption (100 uM) Aver. [1] [%] | Gluconeogenesis inhibition (100 uM) Aver. [2] | Cholesterol (100 uM) Aver. [3] | Cholesterol (500 uM) Aver. [3] | Triglyceride (100 uM) Aver. [4] | Triglyceride (500 uM) Aver. [4] | Gluconeogenesis inhibition (100 uM) Aver. ([2]; 100 µM) |
| --- | --- | --- | --- | --- | --- | --- | --- |
| CC(C)CN=C(NCCc1cccs1)NC(=N)N.Cl [Example 42, -2-(thiophen-2-ylethyl)-N2-isobutyl biguanide hydrochloride] | 171.92 | 99.91 | 89.11 | 73.15 | 97.66 | 88.50 |  |
| CCCCN=C(NCCc1cccs1)NC(=N)N.Cl [Example 26, N1-2-(thiophen-2-ylethyl)-N2-butyl biguanide hydrochloride (isomer)] | 18.34 |  | 43.20 | 13.28 | 47.59 | 30.67 | 81.70 |
| Cl.N=C(N)NC(=Nc1ccc(Br)cc1)NCCc1cccs1 [Example 33, N1-2-(thiophen-2-ylethyl)-N2-(4-bromophenyl) biguanide hydrochloride] | 14.24 | 17.03 | 24.52 | 31.66 | 29.12 | 27.48 |  |
| COc1ccc(CN=C(NCCc2cccs2)NC(=N)N)cc1.Cl [Example 38, N1-2-(thiophen-2-ylethyl)-N2-(4-methoxybenzyl) biguanide hydrochloride] | 195.22 | 120.13 | 80.35 | 44.72 | 100.89 | 84.10 |  |
